Read-outs that look alike come from different tables or passages of the source.
How the values were obtained:
Format in all cases: binding
[1] = biological target: T1, HeLa cell extract proteins (Homo sapiens, UniProt O75947)
T1 construct: endogenous in cells; host or cells: HeLa cell extract

[2] = biological target: T2, HeLa cell extract proteins (Homo sapiens, UniProt O95714)
T2 construct: endogenous in cells; host or cells: HeLa cell extract

[3] = biological target: T3, HeLa cell extract proteins (Homo sapiens, UniProt P00966)
T3 construct: endogenous in cells; host or cells: HeLa cell extract
T3 sequence (P00966 1-412): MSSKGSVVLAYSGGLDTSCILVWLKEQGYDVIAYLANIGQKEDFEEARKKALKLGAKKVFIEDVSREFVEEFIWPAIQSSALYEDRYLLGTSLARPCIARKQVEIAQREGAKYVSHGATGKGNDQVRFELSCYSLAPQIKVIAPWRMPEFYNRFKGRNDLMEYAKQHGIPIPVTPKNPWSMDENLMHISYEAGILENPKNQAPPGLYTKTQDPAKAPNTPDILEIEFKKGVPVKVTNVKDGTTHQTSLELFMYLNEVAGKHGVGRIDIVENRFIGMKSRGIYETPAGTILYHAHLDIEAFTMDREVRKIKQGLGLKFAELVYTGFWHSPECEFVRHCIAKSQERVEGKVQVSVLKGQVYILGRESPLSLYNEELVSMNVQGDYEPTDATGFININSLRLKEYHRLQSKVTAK

[4] = biological target: T4, HeLa cell extract proteins (Homo sapiens, UniProt P51659)
T4 construct: endogenous in cells; host or cells: HeLa cell extract
T4 sequence (P51659 1-736): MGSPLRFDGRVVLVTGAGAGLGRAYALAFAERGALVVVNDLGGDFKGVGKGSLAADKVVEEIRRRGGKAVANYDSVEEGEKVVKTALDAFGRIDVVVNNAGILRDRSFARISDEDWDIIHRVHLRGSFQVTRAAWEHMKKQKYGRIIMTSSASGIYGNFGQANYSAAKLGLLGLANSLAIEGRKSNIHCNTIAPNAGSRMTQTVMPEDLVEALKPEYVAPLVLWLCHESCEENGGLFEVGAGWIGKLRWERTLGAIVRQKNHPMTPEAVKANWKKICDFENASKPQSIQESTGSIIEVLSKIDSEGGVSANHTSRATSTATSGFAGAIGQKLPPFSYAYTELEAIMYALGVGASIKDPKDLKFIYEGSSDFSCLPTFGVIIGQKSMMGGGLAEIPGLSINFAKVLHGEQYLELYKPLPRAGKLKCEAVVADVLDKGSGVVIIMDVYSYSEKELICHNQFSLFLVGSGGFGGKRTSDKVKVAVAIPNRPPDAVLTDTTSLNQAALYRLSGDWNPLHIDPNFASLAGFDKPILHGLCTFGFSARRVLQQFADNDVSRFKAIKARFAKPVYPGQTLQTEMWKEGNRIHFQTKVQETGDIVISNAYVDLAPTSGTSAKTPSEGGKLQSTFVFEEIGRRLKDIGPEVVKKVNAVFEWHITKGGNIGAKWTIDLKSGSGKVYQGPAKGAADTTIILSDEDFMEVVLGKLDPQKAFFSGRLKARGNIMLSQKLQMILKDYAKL

[5] = biological target: T5, HeLa cell extract proteins (Homo sapiens, UniProt P61457)
T5 construct: endogenous in cells; host or cells: HeLa cell extract
T5 sequence (P61457 1-104): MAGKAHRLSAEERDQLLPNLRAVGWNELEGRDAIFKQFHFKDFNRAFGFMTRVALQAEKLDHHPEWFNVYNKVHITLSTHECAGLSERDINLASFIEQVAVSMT

[6] = biological target: T6, HeLa cell extract proteins (Homo sapiens, UniProt P61981)
T6 construct: endogenous in cells; host or cells: HeLa cell extract
T6 sequence (P61981 1-247): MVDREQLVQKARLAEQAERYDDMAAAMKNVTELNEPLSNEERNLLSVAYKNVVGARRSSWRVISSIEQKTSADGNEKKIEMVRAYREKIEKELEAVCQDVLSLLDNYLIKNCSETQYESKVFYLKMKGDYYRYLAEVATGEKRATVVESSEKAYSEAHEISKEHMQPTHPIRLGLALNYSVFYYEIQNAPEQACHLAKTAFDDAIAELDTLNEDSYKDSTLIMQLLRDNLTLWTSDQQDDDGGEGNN

[7] = biological target: T7, HeLa cell extract proteins (Homo sapiens, UniProt P78371)
T7 construct: endogenous in cells; host or cells: HeLa cell extract
T7 sequence (P78371 1-535): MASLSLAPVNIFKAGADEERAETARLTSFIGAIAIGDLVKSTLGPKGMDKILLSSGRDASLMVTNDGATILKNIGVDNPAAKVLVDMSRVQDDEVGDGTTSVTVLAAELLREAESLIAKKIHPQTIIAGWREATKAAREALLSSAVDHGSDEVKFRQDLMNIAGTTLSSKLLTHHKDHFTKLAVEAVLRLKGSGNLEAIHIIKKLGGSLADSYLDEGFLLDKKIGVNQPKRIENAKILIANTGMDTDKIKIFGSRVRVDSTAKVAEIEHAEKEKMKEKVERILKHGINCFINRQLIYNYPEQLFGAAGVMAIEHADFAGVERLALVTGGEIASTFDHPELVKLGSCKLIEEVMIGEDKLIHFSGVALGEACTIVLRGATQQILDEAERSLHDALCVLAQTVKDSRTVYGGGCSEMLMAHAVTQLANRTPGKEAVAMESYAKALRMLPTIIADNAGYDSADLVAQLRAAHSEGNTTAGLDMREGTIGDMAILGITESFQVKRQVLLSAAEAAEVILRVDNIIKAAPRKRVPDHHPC

[8] = biological target: T8, HeLa cell extract proteins (Homo sapiens, UniProt Q02790)
T8 construct: endogenous in cells; host or cells: HeLa cell extract
T8 sequence (Q02790 1-459): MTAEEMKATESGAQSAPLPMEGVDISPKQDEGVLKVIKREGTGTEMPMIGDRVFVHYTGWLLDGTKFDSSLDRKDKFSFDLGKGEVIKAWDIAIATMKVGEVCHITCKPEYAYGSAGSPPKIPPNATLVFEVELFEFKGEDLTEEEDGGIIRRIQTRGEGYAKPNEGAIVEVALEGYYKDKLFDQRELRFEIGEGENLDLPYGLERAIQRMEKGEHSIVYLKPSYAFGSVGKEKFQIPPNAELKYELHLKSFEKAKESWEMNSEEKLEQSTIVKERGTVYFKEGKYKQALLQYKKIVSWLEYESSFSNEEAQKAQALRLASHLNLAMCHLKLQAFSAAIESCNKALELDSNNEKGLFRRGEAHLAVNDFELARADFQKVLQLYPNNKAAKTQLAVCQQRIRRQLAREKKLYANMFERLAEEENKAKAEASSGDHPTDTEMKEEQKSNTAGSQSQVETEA

[9] = HeLa, protein HSD17B4 (CDNA FLJ55431, HIGHLY SIMILAR TO PEROXISOMAL MULTIFUNCTIONAL ENZYME TYPE 2)
[10] = HeLa, protein ASS1 (ARGININOSUCCINATE SYNTHASE.)
[11] = HeLa, protein YWHAG (14-3-3 PROTEIN GAMMA.)
[12] = HeLa, protein FKBP4 (FK506-BINDING PROTEIN 4.)

T2 sequence (O95714 whole entry): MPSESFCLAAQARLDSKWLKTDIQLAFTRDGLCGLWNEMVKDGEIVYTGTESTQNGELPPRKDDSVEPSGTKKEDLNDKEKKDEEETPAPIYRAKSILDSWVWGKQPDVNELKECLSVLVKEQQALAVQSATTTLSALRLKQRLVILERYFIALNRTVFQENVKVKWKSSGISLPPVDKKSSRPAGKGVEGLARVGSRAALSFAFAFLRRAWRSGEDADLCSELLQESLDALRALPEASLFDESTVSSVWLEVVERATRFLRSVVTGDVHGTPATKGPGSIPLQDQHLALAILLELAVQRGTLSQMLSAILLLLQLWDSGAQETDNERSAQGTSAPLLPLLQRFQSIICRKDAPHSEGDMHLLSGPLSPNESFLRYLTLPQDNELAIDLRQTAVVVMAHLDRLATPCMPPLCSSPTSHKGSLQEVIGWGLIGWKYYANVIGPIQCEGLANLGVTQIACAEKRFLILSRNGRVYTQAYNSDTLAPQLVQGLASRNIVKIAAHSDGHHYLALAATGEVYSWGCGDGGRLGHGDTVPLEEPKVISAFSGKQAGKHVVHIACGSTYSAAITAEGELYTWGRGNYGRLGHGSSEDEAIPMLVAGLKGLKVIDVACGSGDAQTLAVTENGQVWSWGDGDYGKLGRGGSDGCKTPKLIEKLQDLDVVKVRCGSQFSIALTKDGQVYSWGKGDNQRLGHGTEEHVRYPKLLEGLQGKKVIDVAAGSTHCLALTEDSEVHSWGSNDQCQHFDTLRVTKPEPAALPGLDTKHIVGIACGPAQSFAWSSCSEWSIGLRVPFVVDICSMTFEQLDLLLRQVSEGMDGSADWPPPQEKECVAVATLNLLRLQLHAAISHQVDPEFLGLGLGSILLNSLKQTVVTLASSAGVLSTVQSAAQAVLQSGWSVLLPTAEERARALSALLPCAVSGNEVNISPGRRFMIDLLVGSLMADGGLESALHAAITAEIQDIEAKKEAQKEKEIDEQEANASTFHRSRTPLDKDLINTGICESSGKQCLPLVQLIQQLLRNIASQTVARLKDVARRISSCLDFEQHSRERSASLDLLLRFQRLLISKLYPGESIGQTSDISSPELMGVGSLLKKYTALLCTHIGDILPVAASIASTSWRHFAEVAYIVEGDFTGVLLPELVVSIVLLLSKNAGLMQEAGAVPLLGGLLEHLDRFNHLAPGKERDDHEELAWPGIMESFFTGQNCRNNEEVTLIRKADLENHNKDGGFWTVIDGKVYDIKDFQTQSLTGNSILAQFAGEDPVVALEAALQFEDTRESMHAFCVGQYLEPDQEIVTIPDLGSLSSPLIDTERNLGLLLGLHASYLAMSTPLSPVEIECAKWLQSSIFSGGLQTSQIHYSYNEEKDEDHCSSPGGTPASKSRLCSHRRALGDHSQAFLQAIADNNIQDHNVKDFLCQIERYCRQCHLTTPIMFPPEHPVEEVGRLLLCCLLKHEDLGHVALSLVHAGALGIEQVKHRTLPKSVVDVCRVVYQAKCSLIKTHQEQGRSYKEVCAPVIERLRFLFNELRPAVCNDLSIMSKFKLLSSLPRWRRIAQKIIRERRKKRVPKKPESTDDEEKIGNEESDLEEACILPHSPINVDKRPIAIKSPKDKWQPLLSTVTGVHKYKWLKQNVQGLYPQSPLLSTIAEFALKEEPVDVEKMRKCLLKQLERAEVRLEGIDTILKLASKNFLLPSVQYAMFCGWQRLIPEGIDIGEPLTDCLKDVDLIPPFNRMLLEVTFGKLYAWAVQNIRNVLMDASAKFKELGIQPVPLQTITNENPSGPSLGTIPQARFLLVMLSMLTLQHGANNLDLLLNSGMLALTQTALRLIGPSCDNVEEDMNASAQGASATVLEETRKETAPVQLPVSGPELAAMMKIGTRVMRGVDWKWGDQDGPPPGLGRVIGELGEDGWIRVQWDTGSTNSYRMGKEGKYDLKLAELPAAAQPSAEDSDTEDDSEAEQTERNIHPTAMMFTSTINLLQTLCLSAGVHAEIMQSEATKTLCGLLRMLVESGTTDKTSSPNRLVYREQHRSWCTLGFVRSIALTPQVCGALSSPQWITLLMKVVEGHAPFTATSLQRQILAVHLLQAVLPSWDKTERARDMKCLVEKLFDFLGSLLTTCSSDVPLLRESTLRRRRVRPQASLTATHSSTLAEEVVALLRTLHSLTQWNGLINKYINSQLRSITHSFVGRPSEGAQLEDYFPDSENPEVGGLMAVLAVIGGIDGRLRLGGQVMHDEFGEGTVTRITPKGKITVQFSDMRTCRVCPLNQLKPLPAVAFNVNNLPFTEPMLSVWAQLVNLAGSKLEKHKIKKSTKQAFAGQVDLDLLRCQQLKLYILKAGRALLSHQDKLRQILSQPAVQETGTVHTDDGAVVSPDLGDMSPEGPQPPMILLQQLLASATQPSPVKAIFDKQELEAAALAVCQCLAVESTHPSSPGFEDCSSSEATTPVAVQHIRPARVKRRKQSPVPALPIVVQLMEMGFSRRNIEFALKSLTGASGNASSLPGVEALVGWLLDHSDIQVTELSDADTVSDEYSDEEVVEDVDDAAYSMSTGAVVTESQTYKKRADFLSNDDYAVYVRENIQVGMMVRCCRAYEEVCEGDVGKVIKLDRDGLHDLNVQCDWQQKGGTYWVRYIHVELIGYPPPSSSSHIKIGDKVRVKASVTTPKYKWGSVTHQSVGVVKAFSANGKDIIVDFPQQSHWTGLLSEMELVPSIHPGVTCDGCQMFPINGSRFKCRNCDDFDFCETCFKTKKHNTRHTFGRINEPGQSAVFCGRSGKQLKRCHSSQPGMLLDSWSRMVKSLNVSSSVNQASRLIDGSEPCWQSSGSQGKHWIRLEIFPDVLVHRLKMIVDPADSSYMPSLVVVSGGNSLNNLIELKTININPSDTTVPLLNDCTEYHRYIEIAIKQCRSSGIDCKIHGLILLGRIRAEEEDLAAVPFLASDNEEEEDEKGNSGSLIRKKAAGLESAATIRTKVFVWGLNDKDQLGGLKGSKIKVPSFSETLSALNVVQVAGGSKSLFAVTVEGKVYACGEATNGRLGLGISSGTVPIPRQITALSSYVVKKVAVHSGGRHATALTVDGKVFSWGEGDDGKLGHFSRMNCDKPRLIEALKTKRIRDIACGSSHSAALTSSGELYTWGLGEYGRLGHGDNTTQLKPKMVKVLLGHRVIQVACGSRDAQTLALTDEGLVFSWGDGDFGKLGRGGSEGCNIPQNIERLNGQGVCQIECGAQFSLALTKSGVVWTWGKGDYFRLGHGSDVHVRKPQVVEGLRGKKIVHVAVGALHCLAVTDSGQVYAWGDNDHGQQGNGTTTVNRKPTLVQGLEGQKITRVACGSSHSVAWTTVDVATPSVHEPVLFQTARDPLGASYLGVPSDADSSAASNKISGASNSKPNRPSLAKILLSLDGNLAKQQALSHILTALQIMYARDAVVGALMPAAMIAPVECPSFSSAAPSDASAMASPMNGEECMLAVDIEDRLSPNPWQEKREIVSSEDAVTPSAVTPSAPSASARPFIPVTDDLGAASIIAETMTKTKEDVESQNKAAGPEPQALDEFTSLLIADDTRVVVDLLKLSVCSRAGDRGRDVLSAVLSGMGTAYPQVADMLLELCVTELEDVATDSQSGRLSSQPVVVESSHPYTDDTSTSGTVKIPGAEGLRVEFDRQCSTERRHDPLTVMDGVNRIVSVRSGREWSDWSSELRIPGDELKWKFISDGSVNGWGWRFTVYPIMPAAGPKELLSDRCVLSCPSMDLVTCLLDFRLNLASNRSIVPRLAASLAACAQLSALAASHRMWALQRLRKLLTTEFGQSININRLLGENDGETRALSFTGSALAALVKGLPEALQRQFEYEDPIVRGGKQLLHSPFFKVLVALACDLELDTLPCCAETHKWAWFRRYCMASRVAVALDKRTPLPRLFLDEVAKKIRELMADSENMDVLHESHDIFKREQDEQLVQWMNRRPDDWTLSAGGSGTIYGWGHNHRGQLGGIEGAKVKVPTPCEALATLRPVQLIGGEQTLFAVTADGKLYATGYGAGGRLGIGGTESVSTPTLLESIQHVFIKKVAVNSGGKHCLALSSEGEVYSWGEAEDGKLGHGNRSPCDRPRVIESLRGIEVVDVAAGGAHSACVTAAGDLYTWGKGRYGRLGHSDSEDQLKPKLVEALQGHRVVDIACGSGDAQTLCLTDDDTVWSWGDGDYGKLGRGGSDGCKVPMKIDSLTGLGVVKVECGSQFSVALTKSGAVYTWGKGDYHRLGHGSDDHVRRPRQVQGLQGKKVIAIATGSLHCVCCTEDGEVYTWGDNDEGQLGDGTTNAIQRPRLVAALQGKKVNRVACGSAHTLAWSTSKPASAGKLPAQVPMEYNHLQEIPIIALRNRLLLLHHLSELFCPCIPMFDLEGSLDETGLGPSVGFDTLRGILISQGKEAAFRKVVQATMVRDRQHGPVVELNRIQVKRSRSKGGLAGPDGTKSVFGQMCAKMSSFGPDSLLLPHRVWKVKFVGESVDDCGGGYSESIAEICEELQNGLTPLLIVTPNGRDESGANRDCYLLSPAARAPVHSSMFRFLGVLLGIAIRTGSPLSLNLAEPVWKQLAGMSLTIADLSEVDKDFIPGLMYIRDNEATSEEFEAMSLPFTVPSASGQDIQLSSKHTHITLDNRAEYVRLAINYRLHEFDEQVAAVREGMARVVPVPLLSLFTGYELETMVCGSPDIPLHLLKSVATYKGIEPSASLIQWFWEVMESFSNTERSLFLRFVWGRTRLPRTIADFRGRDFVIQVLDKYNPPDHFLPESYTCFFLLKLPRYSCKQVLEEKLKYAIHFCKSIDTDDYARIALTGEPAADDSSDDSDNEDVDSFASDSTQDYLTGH
T1 sequence (O75947 whole entry): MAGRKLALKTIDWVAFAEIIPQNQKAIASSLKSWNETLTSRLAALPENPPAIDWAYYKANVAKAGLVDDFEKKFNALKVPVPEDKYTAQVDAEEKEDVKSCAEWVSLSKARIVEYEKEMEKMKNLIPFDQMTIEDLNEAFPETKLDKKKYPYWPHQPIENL

SMILES	fold changes relative to vehicle control ([1]; HeLa, captured protein ATP5H)	fold changes relative to vehicle control ([2]; protein HERC2, HeLa)	fold changes relative to vehicle control ([3]; HeLa, protein ASS1)	fold changes relative to vehicle control [4, 9]	fold changes relative to vehicle control ([5]; HeLa, captured protein PCBD1)	fold changes relative to vehicle control ([6]; protein YWHAG, HeLa)	fold changes relative to vehicle control ([7]; HeLa, protein CCT2)	fold changes relative to vehicle control ([8]; HeLa, protein FKBP4)	fold changes relative to vehicle control ([1]; protein ATP5H, HeLa)	fold changes relative to vehicle control ([4]; protein HSD17B4, HeLa)	fold changes relative to vehicle control ([5]; captured protein PCBD1, HeLa)	fold changes relative to vehicle control [6, 11]	fold changes relative to vehicle control ([7]; protein CCT2, HeLa)	fold changes relative to vehicle control [8, 12]	further results
Nc1nc2c(c(=O)[nH]1)N(C=O)C(CNc1ccc(C(=O)N[C@@H](CCC(=O)O)C(=O)O)cc1)CN2 (some centres unmarked) [LEU, leucovorin]	0.91	1.09	1.03	1.25	1.4	1.02	1.05	1.01	–	–	–	–	–	–	–
Nc1nc2[nH]cc(CCc3ccc(C(=O)N[C@@H](CCC(=O)O)C(=O)O)cc3)c2c(=O)[nH]1 [PTX, pemetrexed]	–	–	–	–	–	–	–	–	–	–	–	–	–	–	fold changes relative to vehicle control [1]: 1.03; fold changes relative to vehicle control [2]: 1; fold changes relative to vehicle control [3]: 1.23; fold changes relative to vehicle control [4]: 1.15; fold changes relative to vehicle control [5]: 1.68; fold changes relative to vehicle control [6]: 1.09; fold changes relative to vehicle control [7]: 1.11; fold changes relative to vehicle control [8]: 1.18
CCCCCCOc1ccc(Cc2cnc(N)nc2N)cc1 [compound 1]	–	1	–	–	–	–	–	–	1.11	1.07	1.01	1.45 fold	1.33	1.48 fold	fold changes relative to vehicle control [3, 10]: 1.53 fold
CCCCCCOc1cccc(Cc2cnc(N)nc2N)c1 [compound 2]	–	0.83	–	–	–	–	–	–	0.88	1.22	0.96	2.09 fold	1.75	2.28 fold	fold changes relative to vehicle control [3, 10]: 2.2 fold
Nc1nc2cccc(-c3ccccc3)c2n1Cc1ccc(Cl)c(Cl)c1 [compound 3]	–	1.08	–	–	–	–	–	–	0.94	1.14	1.29	0.97 fold	1.13	1.05 fold	fold changes relative to vehicle control ([3]; HeLa, protein ASS1 (ARGININ[…].)): 0.97 fold
NCCOCCOCC(=O)Nc1nc2ncc(CNc3ccc(C(=O)NC(CCC(=O)O)C(=O)O)cc3)nc2c(=O)[nH]1 (centres unmarked) [compound 6]	0.92	1.07	1.43	1.02	1.58	1.26	1.23	1.4	–	–	–	–	–	–	–
NCCCNc1ccc(C(=O)NC(CCC(=O)O)C(=O)O)cc1 (centres unmarked) [compound 7]	0.96	1.09	1.01	1.07	1.48	0.91	0.95	1.05	–	–	–	–	–	–	–
